Data on 16 molecules can be found in ChEMBL document CHEMBL5346961, “Discovery and Evaluation of 3-Quinoxalin Urea Derivatives as Potent, Selective, and Orally Available ATM Inhibitors Combined with Chemotherapy for the Treatment of Cancer via Goal-Oriented Molecule Generation and Virtual Screening” (J Med Chem, 2023).

Data set [1] can be described thus: Metabolic stability in human liver microsomes assessed as clearance at 1 uM in presence of NADPH-regenerating system by LC-MS/MS analysis. The class given is ADME, Microsome.
A short description of data set [2]: Metabolic stability in human liver microsomes assessed as half life at 1 uM in presence of NADPH-regenerating system by LC-MS/MS analysis. The class given is ADME, Microsome.
For data set [3], the target named is T1, Serine-protein kinase ATM (Homo sapiens, UniProt Q13315). As to the kind of experiment: Inhibition of ATM (unknown origin) assessed as remaining activity at 0.01 uM preincubated with compound for 30 mins followed by substrate addition and measured after 2 hrs by HTRF method relative to control. Conditions: time 2.5 hrs.
The target of data set [4] is T1, Serine-protein kinase ATM. As to the kind of experiment: Inhibition of ATM (unknown origin) preincubated with compound for 30 mins followed by substrate addition and measured after 2 hrs by HTRF method.
Data set [5] relates to HCT-116. Briefly: Inhibition of colony formation in human HCT-116 cells at 0.01 uM preincubated for 1 hr followed by exposure to 2 Gy gamma irradiation and measured after 1 week by crystal violet staining based […] assay relative to control. Conditions: HCT-116, light or radiation study, time 169 hrs. The class given is functional.
Data set [6] concerns HCT-116. As to the kind of experiment: Inhibition of colony formation in human HCT-116 cells preincubated for 1 hr followed by exposure to 2 Gy gamma irradiation and measured after 1 week by crystal violet staining based […] assay. The class given is functional, cell-based. The conditions noted are these: HCT-116, light or radiation study.
Data set [7] deals with HCT-116. As to the kind of experiment: Antiproliferative activity against human HCT-116 cells assessed as cell survival at 1 uM incubated for 6 days by MTT assay relative to control. Conditions: HCT-116, 144 h, time 6 day, read-out: Survival. The class given is functional.
The target in data set [8] is T1, Serine-protein kinase ATM. Briefly: Inhibition of ATM (unknown origin) assessed as remaining activity at 1 uM preincubated with compound for 30 mins followed by substrate addition and measured after 2 hrs by HTRF method relative to control. Conditions: time 2.5 hrs.
Data set [9] addresses Serine/threonine-protein kinase ATR (Homo sapiens, UniProt Q13535). Briefly: Inhibition of ATR (unknown origin) assessed as remaining activity at 1 uM in presence of [gamma33P-ATP] by radiometric assay.
A further data set concerns SW-620. Briefly: Antiproliferative activity against human SW620 cells assessed as reduction in cell viability incubated for 6 days by MTT assay. The class given is functional, cell-based. Conditions: SW-620, 144 h.
The subject of data set [10] is MCF7. Briefly: Antiproliferative activity against human MCF7 cells assessed as reduction in cell viability incubated for 6 days by MTT assay. The class given is functional, cell-based. Conditions: MCF7, 144 h.
Data set [11] relates to HCT-116. Briefly: Inhibition of colony formation in human HCT-116 cells assessed as assessed as fold change in IC50 in presence of ionizing radiation. The class given is functional.
Data set [12] relates to MCF7. As to the kind of experiment: Synergistic antiproliferative activity against human MCF7 cells assessed as fold increase in etoposide IC50 at 200 nM measured after 6 days by MTT assay. The class given is functional. Conditions: time 6 day.
The subject of data set [13] is MCF7. Briefly: Synergistic antiproliferative activity against human MCF7 cells assessed as fold increase in irinotecan IC50 at 200 nM measured after 6 days by MTT assay. The class given is functional. Conditions: time 6 day.
Data set [14] relates to MCF7. Briefly: Synergistic antiproliferative activity against human MCF7 cells assessed as combination index at […] measured after 6 days in presence etoposide by MTT assay. The class given is functional. The conditions noted are these: dose lower 100 µM; time 6 day.
Data set [15] deals with MCF7. As to the kind of experiment: Synergistic antiproliferative activity against human MCF7 cells assessed as combination index at […] measured after 6 days in presence irinotecan by MTT assay. Conditions: dose lower 100 µM; time 6 day. The class given is functional.
The test system of data set [16] is MCF7. As to the kind of experiment: cells. The conditions noted are these: Homo sapiens, MCF7, 144 h.

Serine/threonine-protein kinase ATR, sequence (Q13535 whole entry, looked up): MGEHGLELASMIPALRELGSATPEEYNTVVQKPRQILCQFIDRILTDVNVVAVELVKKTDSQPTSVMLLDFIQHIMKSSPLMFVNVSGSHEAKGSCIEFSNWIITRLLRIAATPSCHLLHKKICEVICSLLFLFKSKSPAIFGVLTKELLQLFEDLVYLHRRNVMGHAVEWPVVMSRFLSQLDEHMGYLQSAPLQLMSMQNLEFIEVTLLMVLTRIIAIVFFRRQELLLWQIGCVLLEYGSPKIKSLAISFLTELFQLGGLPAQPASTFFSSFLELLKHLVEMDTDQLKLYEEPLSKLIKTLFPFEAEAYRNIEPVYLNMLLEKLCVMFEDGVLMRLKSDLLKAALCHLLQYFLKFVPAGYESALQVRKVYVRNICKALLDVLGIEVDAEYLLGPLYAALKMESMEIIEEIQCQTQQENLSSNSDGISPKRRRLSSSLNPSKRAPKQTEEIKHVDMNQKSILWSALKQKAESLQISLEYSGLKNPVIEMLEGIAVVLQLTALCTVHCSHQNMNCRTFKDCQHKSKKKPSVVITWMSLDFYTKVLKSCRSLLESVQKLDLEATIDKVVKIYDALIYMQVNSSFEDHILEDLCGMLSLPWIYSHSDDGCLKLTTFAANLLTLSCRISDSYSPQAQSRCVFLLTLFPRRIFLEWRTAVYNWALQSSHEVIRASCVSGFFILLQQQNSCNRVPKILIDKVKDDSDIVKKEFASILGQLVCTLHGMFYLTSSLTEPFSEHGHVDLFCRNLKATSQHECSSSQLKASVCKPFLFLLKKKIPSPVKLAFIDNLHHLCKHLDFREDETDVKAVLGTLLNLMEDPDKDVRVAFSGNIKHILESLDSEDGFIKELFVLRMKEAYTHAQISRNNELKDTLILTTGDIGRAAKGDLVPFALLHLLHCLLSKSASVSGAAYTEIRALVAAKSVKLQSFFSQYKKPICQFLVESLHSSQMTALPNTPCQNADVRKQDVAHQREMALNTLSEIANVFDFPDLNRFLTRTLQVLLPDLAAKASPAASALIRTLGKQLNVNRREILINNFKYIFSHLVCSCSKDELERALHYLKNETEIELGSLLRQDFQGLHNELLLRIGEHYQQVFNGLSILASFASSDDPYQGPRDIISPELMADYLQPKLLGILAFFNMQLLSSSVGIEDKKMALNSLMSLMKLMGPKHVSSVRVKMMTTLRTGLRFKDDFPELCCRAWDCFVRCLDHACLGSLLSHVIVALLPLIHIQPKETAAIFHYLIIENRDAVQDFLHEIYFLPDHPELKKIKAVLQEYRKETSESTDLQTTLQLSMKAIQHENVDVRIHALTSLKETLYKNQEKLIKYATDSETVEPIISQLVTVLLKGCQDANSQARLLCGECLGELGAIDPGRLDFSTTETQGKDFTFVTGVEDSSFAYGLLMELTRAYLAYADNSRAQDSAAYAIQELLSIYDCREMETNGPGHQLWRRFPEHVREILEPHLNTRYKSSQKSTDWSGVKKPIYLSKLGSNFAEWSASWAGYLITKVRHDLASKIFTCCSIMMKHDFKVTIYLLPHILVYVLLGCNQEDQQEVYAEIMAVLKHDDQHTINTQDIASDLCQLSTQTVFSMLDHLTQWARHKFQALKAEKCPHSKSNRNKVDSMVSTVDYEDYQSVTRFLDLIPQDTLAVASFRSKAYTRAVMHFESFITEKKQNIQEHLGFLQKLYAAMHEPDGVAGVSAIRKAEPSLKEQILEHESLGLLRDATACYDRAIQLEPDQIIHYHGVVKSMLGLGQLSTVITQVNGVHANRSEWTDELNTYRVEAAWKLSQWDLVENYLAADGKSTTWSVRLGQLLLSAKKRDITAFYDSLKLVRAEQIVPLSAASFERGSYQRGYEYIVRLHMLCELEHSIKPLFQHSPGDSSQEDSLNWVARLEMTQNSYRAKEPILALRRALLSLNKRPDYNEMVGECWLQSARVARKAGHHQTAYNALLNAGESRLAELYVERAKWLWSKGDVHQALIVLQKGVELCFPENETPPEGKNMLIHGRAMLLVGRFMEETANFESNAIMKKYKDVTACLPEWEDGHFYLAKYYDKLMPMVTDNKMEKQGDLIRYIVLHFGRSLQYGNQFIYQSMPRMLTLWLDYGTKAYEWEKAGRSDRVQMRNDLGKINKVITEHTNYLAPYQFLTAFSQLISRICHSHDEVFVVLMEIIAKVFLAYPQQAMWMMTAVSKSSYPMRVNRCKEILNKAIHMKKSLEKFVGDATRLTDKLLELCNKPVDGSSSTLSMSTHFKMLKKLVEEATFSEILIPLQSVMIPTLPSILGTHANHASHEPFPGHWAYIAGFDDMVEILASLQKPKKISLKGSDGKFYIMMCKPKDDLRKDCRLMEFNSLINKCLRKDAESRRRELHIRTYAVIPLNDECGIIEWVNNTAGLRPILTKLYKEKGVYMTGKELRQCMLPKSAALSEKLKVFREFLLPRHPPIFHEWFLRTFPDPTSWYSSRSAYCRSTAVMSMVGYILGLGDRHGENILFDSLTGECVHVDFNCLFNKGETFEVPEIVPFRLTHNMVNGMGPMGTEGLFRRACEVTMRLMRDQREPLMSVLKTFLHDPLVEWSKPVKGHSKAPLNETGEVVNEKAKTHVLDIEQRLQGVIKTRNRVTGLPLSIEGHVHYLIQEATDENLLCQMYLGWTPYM

On to `CC(C)NC(=O)N(C)c1cnc2ccc(-c3ccc(OCCCN4CCOCC4)nc3)cc2n1`, for which the CLH in [1] was 24 mL/min/g. Besides, the half-life at 1 µM in data set [2] turned out to be 61 min. In addition, the Activity in data set [3] came out at 4%. In addition, the half-maximal inhibitory concentration (IC50) is 3 nM in data set [4] and 7.13 nM with HCT-116 [6]. The same molecule came in with an inhibition at 0.01 µM with HCT-116 [5] of 64.1%. Besides, the viability at 1 µM with HCT-116 [7] was greater than 83%.
In the case of `CCN(CC)CCCOc1ccc(-c2ccc3ncc(N(C)C(=O)NC(C)C)nc3c2)cn1`, the Activity in data set [8] was -3%; in data set [3], 19%. In addition, in data set [1], the CLH was found to be 14 mL/min/g. Besides, in data set [2], the half-life at 1 µM was 99 min. In addition, the IC50 in data set [4] was determined as 1 nM; in the data set on HCT-116 [6], 6.97 nM. For the same molecule, in the data set with HCT-116 [5], the inhibition at 0.01 µM amounted to 72.8%. Also, the viability at 1 µM in the data set with HCT-116 [7] was greater than 83%.
For `CN(C)CCCOc1ccc(-c2ccc3ncc(N(C)C(=O)NC4CC4)nc3c2)cn1`, the results for the Activity in data set [9] and in [3] were 114% and 17%, respectively. Further, the CLH in data set [1] came to 39 mL/min/g. Also, in data set [2], the half-life at 1 µM worked out at 41 min. In addition, the values for the IC50 (in data set [4]; with HCT-116 [6]) were 8 nM and 15.3 nM, respectively. Also, testing at 0.01 µM in the data set on HCT-116 [5] gave an inhibition of 43.9%. The viability at 1 µM with HCT-116 [7] was greater than 83%.
With `CC(C)NC(=O)N(C)c1cnc2ccc(-c3ccc(OCCCN4CCCC4)nc3F)cc2n1`, the CLH in data set [1] amounted to 6.8 mL/min/g. Besides, the half-life at 1 µM in [2] stood at 204 min. Further, the IC50 in [4] came out at 4 nM; in the data set on HCT-116 [6], 26.5 nM. For the same molecule, the inhibition at 0.01 µM in the data set with HCT-116 [5] was 43.4%.
For `CC(C)NC(=O)N(C)c1cnc2ccc(-c3ccc(OCCCN4CCCCC4)nc3F)cc2n1`, in that order: 7.4 mL/min/g, 187 min, 1 nM, 15.4 nM and 68.7%.
`CC(C)NC(=O)N(C)c1cnc2ccc(-c3ccc(OCCCN4CCCC4)nc3)cc2n1`: the CLH in data set [1] is 5.2 mL/min/g. In [2], the half-life at 1 µM was 267 min. Further, the IC50 in data set [4] was 1.75 nM; with HCT-116 [6] it was 1.76 nM; in the data set on SW-620 it was greater than 9000 nM; in the data set with MCF7 [10], greater than 9000 nM. The molecule further returned an inhibition at 0.01 µM in the data set on HCT-116 [5] of 83.8%. In addition, the viability at 1 µM in the data set on HCT-116 [7] is greater than 83%. Moreover, the “fold change (FC)” value with HCT-116 [11] worked out at 8284; in the data set on MCF7 [12], 3; in the data set with MCF7 [13], 13. The CI with MCF7 [14] and with MCF7 [15] was less than 1 each time.
In the data set with MCF7 [16], `COc1cc([C@@H]2c3cc4c(cc3[C@@H](O[C@@H]3O[C@@H]5CO[C@@H](C)O[C@H]5[C@H](O)[C@H]3O)[C@H]3COC(=O)[C@H]23)OCO4)cc(OC)c1O` [ETOPOSIDE] registered a half-inhibitory concentration (IC50) of 210 nM.
For the molecule `CN(C)CCCOc1ccc(-c2ccc3ncc(N(C)C(=O)Nc4ccccc4Cl)nc3c2)cn1`, the Activity in data set [9] stood at 102%; in data set [3], 3%. Also, the CLH in data set [1] stood at 43 mL/min/g. Besides, the half-life at 1 µM in data set [2] amounted to 33 min. Further, the figures for the IC50 (in data set [4]; in the data set with HCT-116 [6]) were 0.9 nM and 4.35 nM, respectively. In the data set on HCT-116 [5], this molecule displayed an inhibition at 0.01 µM of 84.4%. The viability at 1 µM with HCT-116 [7] was greater than 83%.
For the molecule `Cc1nc(OCCCN2CCCCC2)ccc1-c1ccc2ncc(N(C)C(=O)NC(C)C)nc2c1`, the Activity was -4% in data set [8] and 16% in [3]. For the same molecule, the CLH in data set [1] came out at 3 mL/min/g. For the same molecule, the half-life at 1 µM in data set [2] was 462 min. The 50% inhibitory concentration (IC50) came out at 9 nM in data set [4] and 21.9 nM in the data set on HCT-116 [6]. Moreover, 0.01 µM produced 48.2% inhibition in the data set with HCT-116 [5].
As for `CN(C)CCCOc1ccc(-c2ccc3ncc(N(C)C(=O)NC4CCCC4)nc3c2)cn1`, the Activity in [9] is 100%; in data set [3] it was 2%. For the same molecule, the CLH in data set [1] stood at 64 mL/min/g. The half-life at 1 µM in data set [2] is 22 min. For the same molecule, the IC50 in [4] stood at 1 nM; with HCT-116 [6] it was 1.56 nM. The inhibition at 0.01 µM in the data set on HCT-116 [5] turned out to be 91.9%. Also, in the data set with HCT-116 [7], the viability at 1 µM was greater than 83%.
In the case of `CN(C)CCCOc1ccc(-c2ccc3ncc(N(C)C(=O)NC4CCCCC4)nc3c2)cn1`, the values for the Activity in data set [9] and in data set [3] were 94% and -1%, respectively. In addition, the CLH in data set [1] was 94 mL/min/g. The half-life at 1 µM in data set [2] amounted to 15 min. Also, the IC50 stood at 0.9 nM in data set [4] and 0.54 nM in the data set on HCT-116 [6]. The same molecule returned an inhibition at 0.01 µM in the data set on HCT-116 [5] of 99.6%. In addition, in the data set on HCT-116 [7], the viability at 1 µM was greater than 83%.
Regarding `CC(C)NC(=O)N(C)c1cnc2ccc(-c3ccc(OCCCN(C)C)nc3)cc2n1`, the results for the Activity in [9] and in data set [3] were 105% and 14%, respectively. In addition, the CLH in data set [1] was found to be 40 mL/min/g. In [2], the half-life at 1 µM is 35 min. Moreover, the results for the IC50 (in data set [4]; in the data set on HCT-116 [6]) were 2 nM and 8.94 nM, respectively. For the same molecule, the inhibition at 0.01 µM in the data set with HCT-116 [5] came to 58.4%. Besides, the viability at 1 µM in the data set on HCT-116 [7] is greater than 83%.
Turning to `CCCCNC(=O)N(C)c1cnc2ccc(-c3ccc(OCCCN(C)C)nc3)cc2n1`, the Activity in [9] turned out to be 105%; in data set [3], 3%. Besides, the CLH in [1] turned out to be 64 mL/min/g. For the same molecule, the half-life at 1 µM in data set [2] is 22 min. Further, the results for the IC50 (in [4]; in the data set on HCT-116 [6]) were 0.8 nM and 7.65 nM, respectively. The molecule further came in with an inhibition at 0.01 µM in the data set with HCT-116 [5] of 92.7%. Besides, the viability at 1 µM in the data set on HCT-116 [7] was greater than 83%.
Take `CC(C)NC(=O)N(C)c1cnc2ccc(-c3ccc(OCCCN4CCN(C)CC4)nc3)cc2n1`: in data set [1], the CLH is 13 mL/min/g. Moreover, in data set [2], the half-life at 1 µM is 107 min. In addition, the Activity in data set [3] turned out to be 5%. Besides, the IC50 in data set [4] came out at 3 nM; in the data set with HCT-116 [6], 5.41 nM. Moreover, the inhibition at 0.01 µM in the data set with HCT-116 [5] was 73.6%. The viability at 1 µM in the data set on HCT-116 [7] was greater than 83%.
`CN(C)CCCOc1ccc(-c2ccc3ncc4c(c3c2)n(C2CCOCC2)c(=O)n4C)cn1` gave an inhibition at 0.01 µM in the data set on HCT-116 [5] of 94.3%. The half-inhibitory concentration (IC50) in the data set with HCT-116 [6] came to 0.46 nM.
Take `C=CCNC(=O)N(C)c1cnc2ccc(-c3ccc(OCCCN(C)C)nc3)cc2n1`: the Activity in [9] came to 103%; in [3] it was 11%. Besides, the CLH in data set [1] is 55 mL/min/g. Moreover, the half-life at 1 µM in [2] was 25 min. Also, the half-inhibitory concentration (IC50) in data set [4] came out at 2 nM; in the data set on HCT-116 [6], 12.2 nM. This molecule also displayed an inhibition at 0.01 µM in the data set on HCT-116 [5] of 49.7%.
